The record followed here is patent publication US5843941A, “Ras farnesyl transferase inhibitors” (Genentech, Inc., priority 1994, dated 1998).

For this assay, the target named is CAAX farnesyltransferase (Rattus norvegicus, UniProt Q02293+Q04631). Put plainly: In vitro inhibition of CAAX farnesyltransferase. The format is biochemical. Also noted: purified to homogeneity from rat brain homogenates; from tissue; host or cells: rat brain; alternatively recombinant enzyme from a baculovirus expression system. As to conditions: Table D. As to the method: All compounds were tested for in vitro inhibition of CAAX protein farnesyltransferase. […] Alternatively, recombinant CAAX protein farnesyltransferase was also used in this assay. […] Seventy-two hrs after infection, the cells were harvested and disrupted and the enzyme isolated by chromatography on Q-Sepharose.
CAAX farnesyltransferase, sequence (Q02293 whole entry, one chain of several): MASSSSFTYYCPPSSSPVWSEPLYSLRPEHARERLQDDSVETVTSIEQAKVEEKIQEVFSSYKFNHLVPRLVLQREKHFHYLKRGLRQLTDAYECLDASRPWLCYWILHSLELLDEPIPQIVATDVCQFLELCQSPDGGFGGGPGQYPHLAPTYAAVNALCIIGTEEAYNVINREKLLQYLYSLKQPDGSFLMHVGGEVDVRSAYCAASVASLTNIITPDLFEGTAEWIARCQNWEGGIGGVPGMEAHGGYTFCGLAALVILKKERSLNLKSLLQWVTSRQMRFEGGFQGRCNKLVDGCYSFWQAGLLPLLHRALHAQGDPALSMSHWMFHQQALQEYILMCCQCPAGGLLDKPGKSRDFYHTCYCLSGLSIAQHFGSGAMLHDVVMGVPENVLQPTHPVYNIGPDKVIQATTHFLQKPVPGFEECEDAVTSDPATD
After incubation for 30 min at 37° C., the amount of [3H]famesyl group transferred to p21H-ras was measured by precipitation with SDS/trichloroacetic acid, filtration onto nitrocellulose, and scintillation counting.
Structures of the compounds tested are reproduced below. Compound numbers also refer to example numbers above.

The mark [1] stands for this setting: diastereomer A, read-out: EC50 (μM) "A".
The mark [2] stands for this setting: diastereomer B, read-out: EC50 (μM) "B".

Read-outs that look alike come from different tables or passages of the source.

By EC50 is commonly meant the midpoint of the concentration-response curve. Consider `CSCC[C@H](NC(=O)CN1C(=O)C(N(C)C(=O)[C@@H](N)CS)N=C(c2ccccc2F)c2cc(Cl)ccc21)C(=O)O` (stereo partly drawn) [compound 82, N-[[3-[(2-amino-3-mercapto-1-oxopropyl)methylamino]-2,3-dihydro-2-oxo-5-(2'-fluorophenyl)-7-chloro-1H-1,4-benzodiazepin-1-yl]acetyl]-L-methionine], for which the EC50 runs as follows: under setting [1], 0.25 µM; under setting [2], 0.001 µM.

Consider `CSCC[C@H](NC(=O)CN1C(=O)C(N(C)C(=O)[C@@H](N)CS)N=C(c2ccccc2Cl)c2cc(Cl)ccc21)C(=O)O` (stereo partly drawn) [compound 81, N-[[3-[(2-amino-3-mercapto-1-oxopropyl)methylamino]-2,3-dihydro-2-oxo-5-(2'-chlorophenyl)-7-chloro-1H-1,4-benzodiazepin-1-yl]acetyl]-L-methionine], for which the EC50 under setting [1] is 0.43 µM and the EC50 under setting [2] is 0.0002 µM.

Take `CCOC(=O)[C@H](CCSC)NC(=O)CN1C(=O)C(N(C)C(=O)[C@@H](N)CS)N=C(c2ccccc2)c2ccccc21` (some centres unmarked) [compound 39]: the EC50 under setting [1] stood at 8 µM and the EC50 under setting [2] is 0.11 µM.

As to `CCN[C@@H](CS)C(=O)N(C)C1N=C(c2ccccc2)c2ccccc2N(CC(=O)N[C@@H](CCSC)C(=O)O)C1=O` (stereo partly drawn) [compound 42, N-[[3-[(2-ethylamino-3-mercapto-1-oxopropyl)methylamino]-2,3-dihydro-2-oxo-5-phenyl-1H-1,4-benzodiazepin-1-yl]acetyl]-L-methionine], the EC50 is 0.58 µM under setting [1] and 0.018 µM under setting [2].

Turning to `CN(C(=O)[C@@H](N)CS)C1N=C(c2ccccc2)c2cc(Cl)ccc2N(Cc2ccccc2Cl)C1=O` (some centres unmarked) [compound 107, N-[[3-[(2-amino-3-mercapto-1-oxopropyl)methylamino]-2,3-dihydro-2-oxo-5-phenyl-7-chloro-1H-1,4-benzodiazepin-1-yl]methyl]-2-chlorobenzene], the 50% effective concentration (EC50) reads like this: under setting [1], 0.006 µM; under setting [2], 0.006 µM.

On to `CSCC[C@H](NC(=O)CN1C(=O)C(N(C)C(=O)[C@@H](N)CSSC(C)(C)C)C=C(c2ccccc2F)c2cc(Cl)ccc21)C(=O)OC1CCCCC1` (stereo partly drawn) [compound 113, N-[[3-[(2-amino-3-tert-butylthiomercapto-1-oxopropyl)methylamino]-2,3-dihydro-2-oxo-5-(2'-fluorophenyl)-7-chloro-1H-1,4-benzazepin-1-yl]acetyl]-L-methionine cyclohexyl ester], for which the EC50 by setting is: under setting [1], greater than 3 µM; under setting [2], greater than 3 µM.

For `CN(C(=O)C(N)CS)C1N=C(c2ccccc2)c2ccccc2N(Cc2cccc(-c3nnn[nH]3)c2)C1=O` (centres unmarked) [compound 96, N-[[3-[(2-amino-3-mercapto-1-oxopropyl)methylanino]-2,3-dihydro-2-oxo-5-phenyl-1H-1,4benzodiazepin-1-yl]methyl]-3-tetrazolylbenzene], the EC50 amounted to 0.23 µM under setting [1] and 0.0013 µM under setting [2].

Regarding `CSCC[C@H](NC(=O)CCN1C(=O)C(N(C)C(=O)[C@@H](N)CS)N=C(c2ccccc2)c2ccccc21)C(=O)O` (some centres unmarked) [compound 48], the EC50 amounted to 2.5 µM under setting [1] and 0.004 µM under setting [2].

On to `CSCC[C@H](NC(=O)CN1C(=O)C(N(C)C(=O)[C@@H](N)CS)N=C(c2ccccc2)c2ccccc21)C(N)=O` (stereo partly drawn) [compound 33, N-[[3-[(2-amino-3-mercapto-1-oxopropyl)methylamino]-2,3-dihydro-2-oxo-5phenyl-1H-1,4-benzodiazepin-1-yl]acetyl]-L-methionine amide], for which the EC50 is, setting by setting: under setting [1], 2.2 µM; under setting [2], 0.019 µM.

For the molecule `CN(C(=O)[C@@H](N)CS)C1N=C(c2ccccc2)c2ccccc2N(CC(=O)N[C@@H](CCc2ccccc2)C(=O)O)C1=O` (stereo partly drawn) [compound 59, N-[[3-[-(2-amino-3-mercapto-1-oxopropyl)methylamino]-2,3-dihydro-2-oxo-5-phenyl-1H-1,4-benzodiazepin-1-yl]acetyl]-L-homo-phenylalanine], the half-maximal effective concentration (EC50) reads like this: under setting [1], 1.1 µM; under setting [2], 0.0012 µM.

Consider `CN(C(=O)[C@@H](N)CS)C1N=C(c2ccccc2)c2ccccc2N(CC(=O)NCC(=O)O)C1=O` (some centres unmarked) [compound 53, N-[[3-[(2-amino-3-mercapto-1-oxopropyl)methylamino]-2,3-dihydro-2-oxo-5-phenyl-1H-1,4-benzodiazepin-1-yl]acetyl]-glycine], for which the EC50 reads like this: under setting [1], greater than 3 µM; under setting [2], 0.0004 µM.

As to `CN(C(=O)[C@@H](N)CS)C1N=C(c2ccccc2)c2ccccc2N(CC(=O)N[C@@H](Cc2ccc(F)cc2)C(=O)O)C1=O` (some centres unmarked) [compound 60], the half-maximal effective concentration (EC50) runs as follows: under setting [1], 0.94 µM; under setting [2], 0.0005 µM.

As to `CN(C(=O)[C@@H](N)CS)C1N=C(c2ccccc2)c2cc(Cl)ccc2N(CC(=O)N[C@@H](Cc2ccc(F)cc2)C(=O)O)C1=O` (stereo partly drawn) [compound 70, N-[[3-[(2-amino-3-mercapto-1-oxopropyl)methylamino]-2,3-dihydro-2-oxo-5-phenyl-7-chloro-1H-1,4-benzodiazepin-1-yl]acetyl]-L-4-fluoro-phenylalanine], the EC50 is 0.13 µM under setting [1] and 0.0008 µM under setting [2].

Turning to `CN(C(=O)[C@@H](N)CS)C1N=C(c2ccccc2)c2ccccc2N(CC(=O)N[C@@H](Cc2ccc(-c3ccccc3)cc2)C(=O)O)C1=O` (stereo partly drawn) [compound 61, N-[[3-[(2-amino-3-mercapto-1-oxopropyl)methylamino]-2,3-dihydro-2-oxo-5-phenyl-1H-1,4-benzodiazepin-1-yl]acetyl]-(β-biphenyl)-L-alanine], the EC50 reads like this: under setting [1], 1.7 µM; under setting [2], 0.0035 µM.

For the molecule `CCCC[C@H](NC(=O)CN1C(=O)C(N(C)C(=O)[C@@H](N)CS)N=C(c2ccccc2)c2ccccc21)C(=O)O` (stereo partly drawn) [compound 62, N-[[3-[(2-amino-3-mercapto-1-oxopropyl)methylamino]-2,3-dihydro-2-oxo-5-phenyl-1H-1,4benzodiazepin-1-yl]acetyl]-L-norleucine], the EC50 amounted to 0.72 µM under setting [1] and 0.0005 µM under setting [2].

Regarding `CN(C(=O)C(N)CS)C1N=C(c2ccccc2)c2ccccc2N(Cc2cccc(C#N)c2)C1=O` (centres unmarked) [compound 93, N-[[3-[(2-amino-3-mercapto-1-oxopropyl)methylamino]-2,3-dihydro-2-oxo-5-phenyl-1H-1,4-benzodiazepin-1-yl]methyl]-3-benzonitrile], the EC50 is, setting by setting: under setting [1], 0.82 µM; under setting [2], 0.004 µM.

In the case of `CN(C(=O)[C@@H](N)CS)C1N=C(c2ccccc2)c2ccccc2N(CC(=O)N[C@@H](CCC(N)=O)C(=O)O)C1=O` (stereo partly drawn) [compound 52, N-[[3-[(2-amino-3-mercapto-1-oxopropyl)methylamino]-2,3-dihydro-2-oxo-5-phenyl-1H-1,4-benzodiazepin-1-yl]acetyl]-L-glutamine], the EC50 is greater than 3 µM under setting [1] and 0.0018 µM under setting [2].

In the case of `CN(C(=O)[C@@H](N)CS)C1N=C(c2ccccc2)c2ccccc2N(Cc2ccc(-c3ccccc3-c3nnn[nH]3)cc2)C1=O` (some centres unmarked) [compound 98, N-[[3-[(2-amino-3-mercapto-1-oxopropyl)methylamino]-2,3-dihydro-2-oxo-5-phenyl-1H-1,4-benzodiazepin-1-yl]methyl]-4-(2-tetrazolylphenyl) benzene], the EC50 under setting [1] amounted to 0.84 µM and the EC50 under setting [2] worked out at 0.006 µM.

On to `CSCC[C@@H](C(=O)O)N(C)C(=O)CN1C(=O)C(NC(=O)[C@@H](N)CS)N=C(c2ccccc2)c2ccccc21` (some centres unmarked) [compound 63], for which the EC50 is greater than 10 µM under setting [1] and 2 µM under setting [2].

As for `CSCC[C@H](NC(=O)CN1C(=O)C(N(C)C(=O)[C@@H](N)CS)N=C(c2ccccc2)c2cc(Cl)ccc21)C(=O)O` (stereo partly drawn) [compound 67, N-[[3-[(2-amino-3-mercapto-1-oxopropyl)methylamino]-2,3-dihydro-2-oxo-5-phenyl-7-chloro-1H-1,4-benzodiazepin-1-yl]acetyl]-L-methionine], the EC50 runs as follows: under setting [1], 0.31 µM; under setting [2], 0.0004 µM.

Consider `Cc1cccc(CN2C(=O)C(N(C)C(=O)[C@@H](N)CS)N=C(c3ccccc3)c3cc(Cl)ccc32)c1` (some centres unmarked) [compound 102, N-[[3-[(2-amino-3-mercapto-1-oxopropyl)methylamino]-2,3-dihydro-2-oxo-5-phenyl-7-chloro-1H-1,4-benzodiazepin-1-yl]methyl]-3-methylbenzene], for which the EC50 is, setting by setting: under setting [1], 0.11 µM; under setting [2], 0.038 µM.

On to `CSCC[C@](C)(NC(=O)CN1C(=O)C(N(C)C(=O)[C@@H](N)CS)N=C(c2ccccc2)c2ccccc21)C(=O)O` (stereo partly drawn) [compound 49, N-[[3-[(2-amino-3-mercapto-1-oxopropyl)methylamino]-2,3-dihydro-2-oxo-5-phenyl-1H-1,4-benzodiazepin-1-yl]acetyl]-(α-methyl)-methionine], for which the EC50 reads like this: under setting [1], 0.74 µM; under setting [2], 0.006 µM.

With `CN(C(=O)[C@@H](N)CS)C1N=C(c2ccccc2)c2ccccc2N(CC(=O)N2CCC[C@H]2C(=O)O)C1=O` (stereo partly drawn) [compound 36, N-[[3-[(2-amino-3-mercapto-1-oxopropyl)methylamino]-2,3-dihydro-2-oxo-5-phenyl-1H-1,4-benzodiazepin-1-yl]acetyl]-L-proline], the EC50 under setting [1] is greater than 10 µM and the EC50 under setting [2] came to 0.048 µM.

In the case of `CN(C(=O)C(N)CS)C1N=C(c2ccccc2)c2ccccc2N(Cc2cccc(C(=O)O)c2)C1=O` (centres unmarked) [compound 95, N-[[3-[(2-amino-3-mercapto-1-oxopropyl)methylamino]-2,3-dihydro-2-oxo-5-phenyl-1H-1,4-benzodiazepin-1-yl]methyl]-3-carboxybenzene], the EC50 amounted to 0.88 µM under setting [1] and 0.0066 µM under setting [2].

As to `C[C@H](NC(=O)CN1C(=O)C(N(C)C(=O)[C@@H](N)CS)N=C(c2ccccc2)c2ccccc21)C(=O)O` (stereo partly drawn) [compound 35, N-[[3-[(2-amino-3-mercapto-1-oxopropyl)methylamino]-2,3dihydro-2-oxo-5-phenyl-1H-1,4-benzodiazepin-1-yl]acetyl]-L-alanine], the EC50 by setting is: under setting [1], greater than 10 µM; under setting [2], 0.022 µM.
